Source: ChEMBL document CHEMBL1144128, “A new bisabolene epoxide from Tussilago farfara, and inhibition of nitric oxide synthesis in LPS-activated macrophages” (J Nat Prod, 1999)
Each block holds one compound with its values, some of them ahead of it.

What was measured:
RAW264.7 [1] = experiment: Inhibition of LPS-induced nitric oxide synthesis in mouse RAW264.7 macrophages after 18 hrs of LPS challenge measured after 18 hrs by ELISA relative to LPS-treated control; format: functional
RAW264.7 [2] = experiment: Inhibition of LPS-induced nitric oxide synthesis in mouse RAW264.7 macrophages at 30 uM after 18 hrs by ELISA relative to LPS-treated control; format: functional; details: RAW264.7, 18 h
RAW264.7 [3] = experiment: Inhibition of LPS-induced nitric oxide synthesis in mouse RAW264.7 macrophages at 30 uM after 18 hrs of LPS challenge measured after 18 hrs by ELISA relative to LPS-treated control; format: functional; details: RAW264.7, 18 h
RAW264.7 [4] = experiment: Inhibition of LPS-induced nitric oxide synthesis in mouse RAW264.7 macrophages at 30 uM pretreated 18 hrs before arginine challenge assessed after 18 hrs by ELISA relative to LPS-treated control; format: functional
RAW264.7 [5] = experiment: Inhibition of LPS-induced nitric oxide synthesis in mouse RAW264.7 macrophages after 18 hrs by ELISA; format: functional, cell-based
RAW264.7 [6] = experiment: Inhibition of LPS-induced nitric oxide synthesis in mouse RAW264.7 macrophages at 0.1 uM after 18 hrs of LPS challenge measured after 18 hrs by ELISA relative to LPS-treated control; format: functional; details: RAW264.7, 18 h
RAW264.7 [7] = experiment: Inhibition of LPS-induced nitric oxide synthesis in mouse RAW264.7 macrophages at 0.1 uM after 18 hrs by ELISA relative to LPS-treated control; format: functional; details: RAW264.7, 18 h
RAW264.7 [8] = experiment: Inhibition of LPS-induced nitric oxide synthesis in mouse RAW264.7 macrophages at 0.1 uM pretreated 18 hrs before arginine challenge assessed after 18 hrs by ELISA relative to LPS-treated control; format: functional

Structure (SMILES): N=C(N)NN [PIMAGEDINE]
- inhibition (INH) (RAW264.7 [1]): 78.8%

- IC50 (RAW264.7 [5]; RAW264.7, 18 h): 8.9 µM
Structure (SMILES): C=C(C(CC=C(C)C)OC(=O)/C(C)=C\C)C1[C@H](OC(C)=O)C(=O)[C@@]2(C)O[C@H]2[C@@H]1OC(C)=O (some centres undefined)
- inhibition at 30 µM (RAW264.7 [2]): 71.1%
- inhibition at 30 µM (RAW264.7 [3]): 11.1%
- inhibition at 30 µM (RAW264.7 [4]): 68.9%
- Activity (RAW264.7 [5]): Dose-dependent effect

Structure (SMILES): CNC(=N)NCCC[C@H](N)C(=O)O [TILARGININE]
- inhibition at 0.1 µM (RAW264.7 [6]): 53.3%
- inhibition at 0.1 µM (RAW264.7 [7]): 60.5%
- inhibition at 0.1 µM (RAW264.7 [8]): 25.8%
